Data taken from patent US20090326196A1 (priority 2006, published 2009).
Square brackets hold non-standard residues; d marks the D form. Peptide text beside a SMILES is read from it. Leu(5,5,5,5',5',5'-F6) = N[C@@H](CC(C(F)(F)F)C(F)(F)F)C(=O)O

Legend:
[1] = system: human red blood cells (hRBC); format: cell-based
Experimental: The selectivity with which the peptides are able to lyse bacterial cells compared to mammalian cells was interrogated by a hemolysis assay against human red blood cells (hRBC). […] Our results are consistent with this trend.
Fresh human red blood cells (hRBCs) were centrifuged at 3,500 rpm and washed with PBS buffer until the supernatant was clear. The hRBCs were then resuspended and diluted to a final concentration of 1% (v/v) in PBS and stored at 4° C. […] An aliquot (50 μL) of supernatant was transferred to a new 96-well plate containing 50 μL H2O in each well. The absorbance at 415 nm was measured using a plate reader. Wells containing melittin at 100-400 μg/mL served as positive controls, and wells containing only buffer and hRBCs served as negative controls. The percentage hemolysis was calculated using the equation:
where complete hemolysis is defined as the average absorbance of all wells containing 100-400 μg/[…] melittin.

[2] = system: T1, trypsin; test: in vitro; format: in vitro ADME, bovine; settings: bovine, isolated enzyme trypsin, pH 7.4
T1 construct: trypsin (from bovine pancreas, EC 3.4.21.4); from tissue; host or cells: bovine pancreas
Experimental: The proteolytic stability of peptides towards trypsin (from bovine pancreas, EC 3.4.21.4) was determined by an analytical RP-HPLC assay. […] The enzyme concentration (in 1 mM HCl) was determined by absorbance at 280 nm. […] The amount of enzyme was optimized so that kinetics of proteolytic reactions could be assayed by RP-HPLC (detection at 230 nm). The peptides were incubated with trypsin at 37° C. over a period of 3 h. Aliquots (10 μL) were taken at different reaction times, diluted with 0.2% TFA (440 μL) and stored at −80° C. […] The remaining full-length peptide concentration was normalized with respect to the initial concentration.
where A is the normalized concentration of peptides; k is the pseudo first order rate constant; t is the reaction time in mins; and [A]0 is the initial concentration of peptides. Each fragment cleaved from the full-length peptides was identified by ESI-MS so that cleavage patterns could be established and compared.

remaining at 3 h, 0.25 mM [2]: > 78%
SMILES: CC[C@H](C)[C@H](NC(=O)CN)C(=O)NCC(=O)N[C@@H](CCCCN)C(=O)N[C@@H](Cc1ccccc1)C(=O)N[C@@H](CC(C(F)(F)F)C(F)(F)F)C(=O)N[C@@H](Cc1c[nH]cn1)C(=O)N[C@@H](C)C(=O)N[C@@H](CC(C(F)(F)F)C(F)(F)F)C(=O)N[C@@H](CCCCN)C(=O)N[C@@H](CCCCN)C(=O)N[C@@H](Cc1ccccc1)C(=O)N[C@@H](CC(C(F)(F)F)C(F)(F)F)C(=O)N[C@@H](CCCCN)C(=O)N[C@@H](C)C(=O)N[C@@H](Cc1ccccc1)C(=O)N[C@@H](CC(C(F)(F)F)C(F)(F)F)C(=O)N[C@@H](C)C(=O)N[C@@H](CCC(=O)O)C(=O)N[C@@H](CC(C(F)(F)F)C(F)(F)F)C(=O)N[C@@H](CCSC)C(=O)N[C@@H](CC(N)=O)C(=O)N[C@@H](CO)C(N)=O [Peptide M2F5] (H-GIGKF[Leu(5,5,5,5',5',5'-F6)]HA[Leu(5,5,5,5',5',5'-F6)]KKF[Leu(5,5,5,5',5',5'-F6)]KAF[Leu(5,5,5,5',5',5'-F6)]AE[Leu(5,5,5,5',5',5'-F6)]MNS-NH2)
hemolytic activity relative to parent peptide, in words [1]: significantly more hemolytic
